For the first experiment, the system named is HCV. Description: anti-HCV activity assay in cell culture (HCV RNA by one-step quantitative RT-PCR). The class given is cell-based. The note with it: Hepatitis C virus, Huh7.5, 96 h, compound at 10 μmol/L; Huh7.5 cells infected with HCV virus particles; cultured 96 hrs; HCV RNA in cells vs virus control group; read-out: percent inhibition (%). As to the method:
The assay results of anti-HCV activity of the compound synthesized according to the present invention in cell culture are shown in Table 1, wherein the molecular weight is calculated by ChemBioDraw 12.0 software from the molecular structure of each compound.
100 μL Huh7.5 cells were seeded in 96-well cell culture plate to 1×10^5/mL density, cultured in an incubator at 37° C. under the condition of 5% CO2 and saturated humidity for 6 hrs. Huh7.5 cells were then infected by viral solution containing HCV virus particles, and solutions of compound of the present invention at a concentration of 10 μmol/L liquid were added respectively, cultured for further 96 hrs, and then total RNA was extracted from the cells. Amount of HCV RNA in cells was determined by one-step quantitative RT-PCR, and compared to RNA levels of the virus control group to calculate the inhibition rate of compounds on HCV.
On to `Cc1ccc(NCc2cc(N3CCNCC3)ccc2C#N)cc1` [Compound 1, 4-(piperazin-1-yl)-2-((p-methylphenylamino)methyl)benzonitrile], for which the inhibition – broadly, the change of the read-out against control, counted positive when it falls – at 10 µM was determined as 97%.

Turning to `COc1ccc(NCc2cc(N3CCNCC3)ccc2C#N)cc1` [Compound 2, 4-(piperazin-1-yl)-2-(p-methoxyphenylamino)methylbenzonitrile], the inhibition at 10 µM is 89%.

For `Cc1ccc(NCc2cc(N3CCN(C)CC3)ccc2C#N)cc1` [Compound 3, 4-(4-methylpiperazin-1-yl)-2-(p-methylphenylamino)methylbenzonitrile], the inhibition at 10 µM was 92%.

With `CN1CCN(c2ccc(C#N)c(CNc3ccccc3)c2)CC1` [Compound 4, 4-(4-methylpiperazin-1-yl)-2-(phenylamino)methylbenzonitrile], the inhibition at 10 µM is 82%.

For the compound `Cc1ccc(NCc2cc(N3CCNC(C)C3)ccc2C#N)cc1` (stereo not shown) [Compound 5, 4-(3-methylpiperazin-1-yl)-2-(p-methylphenylamino)methylbenzonitrile], the inhibition at 10 µM was 88%.

As to `Cc1ccc(NCc2cc(N3CCCC(N)C3)ccc2C#N)cc1` (stereo not shown) [Compound 6, 4-(3-aminopiperidin-1-yl)-2-(p-methylphenylamino)methylbenzonitrile], the inhibition at 10 µM amounted to 68%.

With `N#Cc1ccc(N2CCNCC2)cc1CNc1ccccc1` [Compound 7, 4-(piperazin-1-yl)-2-(phenylamino)methylbenzonitrile], the inhibition at 10 µM stood at 82%.

On to `CN1CCN(c2ccc(C#N)c(CNc3ccc(Cl)cc3)c2)CC1` [Compound 8, 4-(4-methylpiperazin-1-yl)-2-(p-chlorophenylamino)methylbenzonitrile], for which the inhibition at 10 µM worked out at 91%.

In the case of `N#Cc1ccc(N2CCNCC2)cc1CNc1ccc(Cl)cc1` [Compound 9, 4-(piperazin-1-yl)-2-(p-chlorophenylamino)methylbenzonitrile], the inhibition at 10 µM was 92%.

Regarding `COc1ccc(NCc2cc(N3CCN(C)CC3)ccc2C#N)cc1` [Compound 10, 4-(4-methylpiperazin-1-yl)-2-(p-methoxyphenylamino)methylbenzonitrile], the inhibition at 10 µM was 90%.

With `CN1CCN(c2ccc(C#N)c(CNc3ccc(C4CCCCC4)cc3)c2)CC1` [Compound 11, 4-(4-methylpiperazin-1-yl)-2-(p-cyclohexylphenylamino)methylbenzonitrile], the inhibition at 10 µM amounted to 97%.

In the case of `CN1CCN(c2ccc(C#N)c(CNc3ccc(C(C)(C)C)cc3)c2)CC1` [Compound 12, 4-(4-methylpiperazin-1-yl)-2-(p-tert-butylphenylamino)methylbenzonitrile], the inhibition at 10 µM worked out at 92%.

In the case of `CCc1ccc(NCc2cc(N3CCN(C)CC3)ccc2C#N)cc1` [Compound 13, 4-(4-methylpiperazin-1-yl)-2-(p-ethylphenylamino)methylbenzonitrile], the inhibition at 10 µM is 87%.

With `Cc1ccc(N(C)Cc2cc(N3CCN(C)CC3)ccc2C#N)cc1` [Compound 14, 4-(4-methylpiperazin-1-yl)-2-((p-methylphenyl)(methyl)amino)methylbenzonitrile], the inhibition at 10 µM is 97%.

In the case of `CCCN(Cc1cc(N2CCN(C)CC2)ccc1C#N)c1ccc(Cl)cc1` [Compound 15, 4-(4-methylpiperazin-1-yl)-2-((p-chlorophenyl)(propyl)amino)methylbenzonitrile], the inhibition at 10 µM came to 88%.

For `COc1ccc(N(C)Cc2cc(N3CCN(C)CC3)ccc2C#N)cc1` [Compound 16, 4-(4-methylpiperazin-1-yl)-2-((p-methoxyphenyl)(methyl)amino)methylbenzonitrile], the inhibition at 10 µM stood at 84%.

As for `CCCN(Cc1cc(N2CCN(C)CC2)ccc1C#N)c1ccc(C(C)(C)C)cc1` [Compound 17, 4-(4-methylpiperazin-1-yl)-2-((p-tert-butylphenyl)(propyl)amino)methylbenzonitrile], the inhibition at 10 µM amounted to 96%.

As to `CCCN1CCN(c2ccc(C#N)c(CNc3ccccc3)c2)CC1` [Compound 18, 4-(4-propylpiperazin-1-yl)-2-(phenylamino)methylbenzonitrile], the inhibition at 10 µM came out at 75%.

With `C=CCN1CCN(c2ccc(C#N)c(CN(C)c3ccc(C(C)(C)C)cc3)c2)CC1` [Compound 19, 4-(4-allylpiperazin-1-yl)-2-((p-tert-butylphenyl)(methyl)amino)methylbenzonitrile], the inhibition at 10 µM stood at 86%.

As to `COc1ccc(N(C)Cc2cc(N3CCN(c4ccccc4)CC3)ccc2C#N)cc1` [Compound 20, 4-(4-phenylpiperazin-1-yl)-2-((p-methoxyphenyl)(methyl)amino)methylbenzonitrile], the inhibition at 10 µM was 70%.

Take `CC(C)c1ccc(NCc2cc(N3CCN(C)CC3)ccc2C#N)cc1` [Compound 21, 4-(4-methylpiperazin-1-yl)-2-(p-isopropylphenylamino)methylbenzonitrile]: the inhibition at 10 µM was found to be 90%.

Take `CCCN1CCN(c2ccc(C#N)c(CN(C)c3ccc(Oc4ccccc4)cc3)c2)CC1` [Compound 22, 4-(4-propylpiperazin-1-yl)-2-((p-phenoxyphenyl)(methyl)amino)methylbenzonitrile]: the inhibition at 10 µM turned out to be 86%.

As for `CCCN1CCN(c2ccc(C#N)c(CNc3ccc(Sc4ccccc4)cc3)c2)CC1` [Compound 23, 4-(4-propylpiperazin-1-yl)-2-(p-(phenylthio)phenylamino)methylbenzonitrile], the inhibition at 10 µM came out at 78%.

`CN1CCN(c2ccc(C#N)c(CNc3ccc(C4CCCC4)cc3)c2)CC1` [Compound 24, 4-(4-methylpiperazin-1-yl)-2-(p-cyclopentylphenylamino)methylbenzonitrile]: the inhibition at 10 µM is 94%.

`COc1ccc(N(C)Cc2cc(N3CC(C)NC(C)C3)ccc2C#N)cc1` (stereo not shown) [Compound 25, 4-(3,5-dimethylpiperazin-1-yl)-2-((p-methoxyphenyl)(methyl)amino)methylbenzonitrile]: the inhibition at 10 µM worked out at 75%.

In the case of `Cc1ccc(NCc2cc(NCCN3CCCCC3)ccc2C#N)cc1` [Compound 28, 4-((2-(piperidin-1-yl)ethyl)amino)-2-(p-methylphenylamino)methylbenzonitrile], the inhibition at 10 µM stood at 65%.

In the case of `COc1ccc(NCc2cc(NCN3CCCCC3)ccc2C#N)cc1` [Compound 31, 2-((4-methoxyphenyl)amino)methyl-4-(piperidin-1-ylmethyl)aminobenzonitrile], the inhibition at 10 µM stood at 61%.

As to `CN(C)CNc1ccc(C#N)c(CNc2ccc(C(C)(C)C)cc2)c1` [Compound 32, 2-((4-tert-butylphenyl)amino)methyl-4-((N,N-dimethylamino)methyl)aminobenzonitrile], the inhibition at 10 µM came to 73%.

On to `CN(C)CN(C)c1ccc(C#N)c(CN(C)c2ccc(C(C)(C)C)cc2)c1` [Compound 33, 2-((4-tert-butylphenyl)(methyl)amino)methyl-4-(((dimethylamino)methyl)(methyl)amino)benzonitrile], for which the inhibition at 10 µM was 89%.

For `N#Cc1ccc(NCCN2CCCCC2)nc1CNCCCc1ccc(C2CCCC2)cc1` [Compound 34, 2-(((4-cyclopentylphenyl)propylamino)methyl)-6-(2-(piperidin-1-yl)ethyl)amino-3-cyanopyridine], the inhibition at 10 µM is 76%.

In the case of `CN1CCN(c2ccc(C#N)c(CNc3ccc(C4CCCC4)cc3)n2)CC1` [Compound 35, 6-(4-methylpiperazin-1-yl)-2-((4-cyclopentylphenylamino)methyl)-3-cyanopyridine], the inhibition at 10 µM stood at 80%.

For the compound `COc1ccc(NCc2nc(N3CCN(C)CC3)ccc2C#N)cc1` [Compound 36, 2-((4-methoxyphenyl)amino)methyl-6-(4-methylpiperazin-1-yl)-3-cyanopyridine], the inhibition at 10 µM is 75%.

Turning to `Cc1ccc(NCc2nc(N3CCN(C)CC3)ccc2C#N)cc1` [Compound 37, 2-((4-methylphenyl)amino)methyl-6-(4-methylpiperazin-1-yl)-3-cyanopyridine], the inhibition at 10 µM turned out to be 72%.

As for `COc1ccc(NCc2nc(N(C)CCN(C)C)ccc2C#N)cc1` [Compound 38, 6-((2-(dimethylamino)ethyl)(methyl)amino)-2-((4-methoxyphenyl)amino)methyl-3-cyanopyridine], the inhibition at 10 µM is 70%.

On to `Cc1cccc(NCc2nc(N(C)CCN(C)C)ccc2C#N)c1` [Compound 40, 6-((2-(dimethylamino)ethyl)(methyl)amino)-2-((3-methylphenyl)amino)methyl-3-cyanopyridine], for which the inhibition at 10 µM is 84%.

Still in this experiment, the particulars now being: compound at 10 μmol/L; Huh7.5 cells infected with HCV virus particles; cultured 96 hrs; HCV RNA in cells vs virus control group.
Regarding `Cc1ccc(NCc2cc(NCCCN(C)C)ccc2C#N)cc1` [Compound 26, 4-(N,N-dimethyl-1,3-propanediamin-1-yl)-2-(p-methylphenylamino)methylbenzonitrile], the “percent inhibition (%)” value came out at 79%.

As for `CN(C)CCCNc1ccc(C#N)c(CNc2ccccc2)c1` [Compound 27, 4-(N,N-dimethyl-1,3-propanediamin-1-yl)-2-(phenylamino)methylbenzonitrile], the “percent inhibition (%)” value is 78%.

For `CN(C)CCCNc1ccc(C#N)c(CNc2ccc(Cl)cc2)c1` [Compound 29, 4-(N,N-dimethyl-1,3-propanediamin-1-yl)-2-(p-chlorophenylamino)methylbenzonitrile], the “percent inhibition (%)” value is on record as 80%.

For `COc1ccc(NCc2cc(NCCN(C)C)ccc2C#N)cc1` [Compound 30, 4-(N,N-dimethyl-1,3-ethylenediamin-1-yl)-2-(p-methoxyphenylamino)methylbenzonitrile], the “percent inhibition (%)” value is 49%.

As to `COc1cc(NCc2nc(N(C)CCN(C)C)ccc2C#N)cc(OC)c1` [Compound 39], the “percent inhibition (%)” value turned out to be 75%.

(Values after patent publication US10252987B2, “Type of antiviral compound” (Institute of Medicinal Biotechnology, Chinese Academy of …, priority 2015, dated 2019).)
